This is an account of results in US9676786B2, “Pharmacologically active compounds” (The University of Liverpool, priority 2013, dated 2017).

The structures appear in SMILES notation.

The test system of data set [1] is neuropathic rats. The data set is described as follows: Mechanical hyperalgesia, paw withdrawal thresholds in neuropathic rats (partial sciatic nerve ligation). The settings on record: neuropathic Wistar rats, p.o.; peak occurred at 3h. The format is in vivo, rat. The source says: (§1) The wound was closed with skin clips.
(§2) Control animals received vehicle alone.

Data set [2] has as its system neuropathic rats. The data set is described as follows: Cold sensitivity (10° C. cold plate), paw withdrawal latencies in neuropathic rats. Conditions: neuropathic Wistar rats, p.o.; peak occurred at 1h. Format: in vivo, rat.
Excerpt: as §1, §2

Data set [3] has as its system neuropathic rats. The experiment in a line: Comparison of LT-01-25 and LT-01-89: ipsilateral paw withdrawal thresholds to mechanical pressure in neuropathic rats. Format: in vivo, rat. The settings on record: 10 mg/kg p.o., male SD rats. Here is the method:
Male, SD rats. n=6/group. Vehicle: 10% DMSO/10% Solutol HS15/80% saline.
• 1) In rats a peripheral neuropathy was induced by partial ligation of the sciatic nerve in one hind limb. • 2) Two weeks (12-15 days) after induction of peripheral neuropathy stable mechanical (tactile) allodynia was induced in the hind paw of the affected limb. • 3) Five treatment groups of male SD rats (n=8) were used: vehicle control (drug formulation), 3 drug doses, and a positive control, lamotrigine (30 mg/kg). Animals were randomized between groups and the experiment was carried out using blinded conditions. The study was split with n=4/group in each experiment. • 4) Baseline behavioural measurements were obtained prior to surgery and at intervals post-surgery. Predose behavioural measurements were obtained by measuring paw withdrawal thresholds 12-15 days following nerve ligation. • 5) Compound efficacy was determined by measuring paw withdrawal thresholds at specified intervals following vehicle/compound treatment. Methods Animals
Animals were maintained in a controlled lighting environment and given food and water ad libitum. Male Sprague Dawley rats (120-140 g at time of surgery) were used.
Rats were fasted overnight with free access to water and fed 4 hours post-dose.
Tests compounds as well as Lamotrigine (30 mg/kg, volume: 10 ml/kg)) were prepared in the designated formulation (10% DMSO, Solutol HS 15/80% and 0.9% saline for p.o. administration) and administered via the chosen route.
Rats were anaesthetised (isoflurane/O2 inhalation), the left sciatic nerve was exposed at mid-thigh level through a small incision and ⅓ to ½ of the nerve thickness tightly ligated within a 7.0 silk suture. The wound was closed with skin clips. Animals were allowed to recover and compounds administered 12-15 days following surgery.
Compound/vehicle were administered at specified doses. Following treatment, further readings were taken; 1, 3, 6 and 24 hour after p.o. administration.

Data set [4] deals with neuropathic rats. The data set is described as follows: Comparison of LT-01-25 and LT-01-89: ipsilateral withdrawal latencies to cold (10° C.) stimulus in neuropathic rats. The format is in vivo, rat. Conditions: 10 mg/kg p.o., male SD rats.
Data set [5] in a line: Cerebrospinal fluid (CSF) levels after oral dosing. The format is in vivo. Conditions: p.o. dose 3 mg/kg, after 2 hr, fasted male SD rat.
Data set [6] can be described thus: Human microsomal stability. Format: in vitro ADME. The procedure: The metabolic stability assay was performed by incubating each test compound (1 μM) with human liver microsomes in duplicate at 37° C. and 0.4 mg/mL protein concentration. The metabolic reaction was initiated by the addition of a NADPH-regenerating system (i.e. NADPH is the cofactor required for CYP450-mediated metabolism) and quenched at various time points over the 60 minute incubation period by the addition of acetonitrile. Control samples (containing no NADPH) were included (and quenched at 2, 30 and 60 minutes) to monitor for potential degradation in the absence of cofactor. Samples were analysed by UPLC-MS (Waters/Micromass Xevo G2 QTOF) under positive electrospray ionisation and MS spectral data acquired in a mass range of 80 to 1200 Daltons.
Test compound concentration versus time data were fitted to an exponential decay function to determine the first-order rate constant for substrate depletion. In cases where clear deviation from first-order kinetics was evident, only the initial linear portion of the profile was utilised to determine the degradation rate constant (k). Each substrate depletion rate constant was then used to calculate: [1] a degradation half-life, [2] an in vitro intrinsic clearance value (CLint, in vitro); [3] a predicted in vivo hepatic intrinsic clearance value (CLint); [4] a predicted in vivo blood clearance value (CLblood); and [5] a predicted in vivo hepatic extraction ratio (EH).
• 1) The substrate concentration employed is well below the apparent KM for substrate turnover; and, • 2) There is no significant product inhibition, nor is there any mechanism-based inactivation of enzyme. The use of hepatic microsomes in the prediction of the in vivo hepatic extraction ratio has two further inherent assumptions (Obach, 1999) which: • 1) NADPH-dependent oxidative metabolism predominates over other metabolic routes (i.e. direct conjugative metabolism, reduction, hydrolysis, etc.); and, • 2) Rates of metabolism and enzyme activities in vitro are truly reflective of those that exist in vivo. Data should be considered within these terms of reference.

Regarding `CC(C)c1cc(C(=O)N2CCOCC2)cc(C(C)C)c1O` [LT-01-25, (4-(hydroxy)-3,5-diisopropylphenyl)(morpholino)methanone], the “Peak reversal, mechanical (paw pressure)” value with neuropathic rats [1] stood at 90%. Further, the “Peak reversal, cold (10° C. cold plate)” value in the data set with neuropathic rats [2] is listed as 93%. The “Mechanical pressure Percentage reversal of predose hyperalgesia” value in the data set on neuropathic rats [3] (1 hr) is recorded as 1 hr - - - 80%; in the data set on neuropathic rats [3] (3 hr), 3 hr - - - 90%; in the data set with neuropathic rats [3] (6 hr) it was 6 hr - - - 40%. Besides, the “Cold (10° C.) Stimulus Percentage reversal of predose Hyperalgesia” value in the data set on neuropathic rats [4] (1 hr) came to 1 hr - - - 85%; in the data set on neuropathic rats [4] (3 hr), 3 hr - - - 35%; in the data set with neuropathic rats [4] (6 hr), 6 hr - - - 35%. In data set [5], this molecule had a CSF levels of 95 ng/mL. In addition, the “CSF levels as multiple of EC50” value in data set [5] is reported as “(900 × EC50)”. Besides, the half-life at 1 μM in data set [6] (human liver microsomes, read-out: t1/2 (values marked *)) stood at 8.25 h. Besides, the “Cl (values marked *)” value in data set [6] (human microsomes, 1 μM) was 2.7 mL/min/kg (Cl) *.
